Data reported in publication PMC9900783 (bioRxiv, 2023).
Read-outs that look alike come from different tables or passages of the source.

Experiments:
Type in all cases: biochemical
Nape-pld [1] = biological target: T1, Nape-pld (Mus musculus, UniProt Q8BH82); experiment: fluorogenic PED-A1 hydrolysis assay, activation; details: read-out: EC50 μM^b (95% CI)
NAPE-PLD [2] = biological target: NAPE-PLD (Homo sapiens, UniProt Q6IQ20); experiment: recombinant human enzyme, PED-A1 fluorogenic assay, activation
NAPE-PLD, sequence (Q6IQ20 whole entry): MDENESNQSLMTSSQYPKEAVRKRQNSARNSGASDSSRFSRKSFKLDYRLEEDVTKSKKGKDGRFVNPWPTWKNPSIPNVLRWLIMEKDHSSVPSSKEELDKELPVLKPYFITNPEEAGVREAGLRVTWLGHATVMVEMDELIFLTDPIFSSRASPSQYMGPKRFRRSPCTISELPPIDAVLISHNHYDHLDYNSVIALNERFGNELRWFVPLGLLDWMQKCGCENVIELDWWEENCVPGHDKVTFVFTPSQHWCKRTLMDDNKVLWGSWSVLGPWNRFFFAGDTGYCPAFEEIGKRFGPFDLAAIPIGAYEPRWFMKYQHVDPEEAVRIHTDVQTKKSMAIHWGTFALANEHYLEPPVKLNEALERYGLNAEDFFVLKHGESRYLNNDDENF

[3] = biological target: T2, soluble epoxide hydrolase (sEH) (Homo sapiens, UniProt P34913); experiment: sEH activity assay kit
T2 sequence (P34913 1-555): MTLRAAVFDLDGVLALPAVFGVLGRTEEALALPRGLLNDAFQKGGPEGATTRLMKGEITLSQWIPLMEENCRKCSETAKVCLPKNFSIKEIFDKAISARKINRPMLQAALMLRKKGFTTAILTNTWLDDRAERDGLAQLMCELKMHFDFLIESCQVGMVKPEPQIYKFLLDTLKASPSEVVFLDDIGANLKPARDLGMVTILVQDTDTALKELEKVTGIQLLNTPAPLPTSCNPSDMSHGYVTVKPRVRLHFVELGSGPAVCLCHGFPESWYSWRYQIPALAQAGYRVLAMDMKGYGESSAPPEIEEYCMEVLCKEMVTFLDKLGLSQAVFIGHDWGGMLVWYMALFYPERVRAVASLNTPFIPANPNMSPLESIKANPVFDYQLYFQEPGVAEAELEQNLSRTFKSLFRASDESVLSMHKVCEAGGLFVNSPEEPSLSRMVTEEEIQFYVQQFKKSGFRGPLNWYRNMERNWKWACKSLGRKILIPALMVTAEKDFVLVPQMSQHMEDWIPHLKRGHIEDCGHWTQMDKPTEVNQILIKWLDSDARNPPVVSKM

Nape-pld [4] = biological target: T1, Nape-pld; experiment: fluorogenic PED-A1 hydrolysis assay, activation; details: read-out: EC50 μM^b (95% CI); remark: listed apart in the source
Nape-pld [5] = biological target: T1, Nape-pld; experiment: fluorogenic PED-A1 hydrolysis assay, activation; details: read-out: EC50 μM^b (95% CI); remark: listed apart in the source

T1 sequence (Q8BH82 whole entry): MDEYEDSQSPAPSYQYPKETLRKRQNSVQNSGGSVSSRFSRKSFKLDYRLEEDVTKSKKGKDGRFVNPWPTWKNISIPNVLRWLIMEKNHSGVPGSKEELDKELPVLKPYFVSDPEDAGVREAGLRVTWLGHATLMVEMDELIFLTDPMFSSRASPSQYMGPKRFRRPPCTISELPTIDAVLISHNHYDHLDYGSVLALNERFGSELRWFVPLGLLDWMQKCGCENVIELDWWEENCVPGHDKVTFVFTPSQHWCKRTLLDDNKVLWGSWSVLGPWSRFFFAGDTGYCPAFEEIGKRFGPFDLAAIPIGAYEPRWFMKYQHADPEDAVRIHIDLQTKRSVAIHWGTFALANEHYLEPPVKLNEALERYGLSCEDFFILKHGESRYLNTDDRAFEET

EC50 (Nape-pld [1])	EC50 (NAPE-PLD [2])	IC50 [3]	EC50 (Nape-pld [4])	EC50 (Nape-pld [5])	SMILES
0.3 µM	930 nM	1200 nM			Cc1cc(C)c2sc(NC(=O)C3CCN(S(=O)(=O)c4ccc(F)cc4)CC3)nc2c1 [compound 8, VU534]
			0.74 µM		Cc1ccc2nc(NC(=O)C3CCN(S(=O)(=O)c4ccc(Cl)cc4)CC3)sc2c1 [compound 5, VU539]
			0.32 µM		Cc1ccc2nc(NC(=O)C3CCN(S(=O)(=O)c4ccc(F)cc4)CC3)sc2c1 [compound 3, VU486]
	200 nM			0.3 µM	Cc1ccc(C)c2sc(NC(=O)C3CCN(S(=O)(=O)c4ccc(F)cc4)CC3)nc12 [compound 9, VU533]
